Test results as given in PubChem BioAssay AID256 (DTP/NCI, 2004).
Inconclusive results and toxic doses are left out. How the source made its calls: active means survival T/C of 150% or more; inactive means T/C below 125% in these data.

System: CD2F1 mice, L1210 leukemia ip, survival T/C
Experiment: NCI In Vivo Anticancer Drug Screen. Data for tumor model L1210 Leukemia (intraperitoneal) in CD2F1 (CDF1) mice
Conditions: endpoint: mean survival time, higher = longer survival
Procedure, shortened: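 Implant tumor; dose compound or vehicle; measure endpoint in both groups; report treated divided by control.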

Measured: T/C

CCOC1CC(C)C=CO1 (stereo unspecified)
inactive: dose: 100.0 mg/kg/injection, schedule: Q01DX001 (ip), vehicle: saline + alcohol 108 % of control | dose: 200.0 mg/kg/injection, schedule: Q01DX001 (ip), vehicle: saline + alcohol 104 % of control | dose: 400.0 mg/kg/injection, schedule: Q01DX001 (ip), vehicle: saline + alcohol 96 % of control

CC(C)=NNc1cc(N)nc2c1ncn2C1OC(CO)C(O)C1O (stereo unspecified)
inactive: dose: 50.0 mg/kg/injection, schedule: Q01DX005 (ip), vehicle: water 90 % of control | dose: 100.0 mg/kg/injection, schedule: Q01DX005 (ip), vehicle: water 94 % of control | dose: 200.0 mg/kg/injection, schedule: Q01DX005 (ip), vehicle: water 104 % of control

COC(=O)c1ccccc1NCCNc1ccccc1C(=O)OC
inactive: dose: 50.0 mg/kg/injection, schedule: Q04DX002 (ip), vehicle: saline with Tween-80 100 % of control | dose: 200.0 mg/kg/injection, schedule: Q04DX002 (ip), vehicle: saline with Tween-80 95 % of control | dose: 400.0 mg/kg/injection, schedule: Q04DX002 (ip), vehicle: saline with Tween-80 88 % of control

CC(=O)OC1CCC2(C)C(=CCC3C2CCC2(C)C(C(C)C(=O)O)CCC32)C1 (stereo unspecified)
inactive: dose: 100.0 mg/kg/injection, schedule: Q01DX001 (ip), vehicle: saline with Tween-80 102 % of control | dose: 200.0 mg/kg/injection, schedule: Q01DX001 (ip), vehicle: saline with Tween-80 100 % of control | dose: 400.0 mg/kg/injection, schedule: Q01DX001 (ip), vehicle: saline with Tween-80 96 % of control

[Co].[O-][Cl+3]([O-])([O-])O.c1ccc([PH+](CC[PH+](c2ccccc2)c2ccccc2)c2ccccc2)cc1.c1ccc([PH+](CC[PH+](c2ccccc2)c2ccccc2)c2ccccc2)cc1
inactive: dose: 6.25 mg/kg/injection, schedule: Q04DX003 (ip), vehicle: saline with Tween-80 94 % of control | dose: 12.5 mg/kg/injection, schedule: Q04DX003 (ip), vehicle: saline with Tween-80 98 % of control | dose: 25.0 mg/kg/injection, schedule: Q04DX003 (ip), vehicle: saline with Tween-80 110 % of control | dose: 200.0 mg/kg/injection, schedule: Q04DX003 (ip), vehicle: saline with Tween-80 91 % of control
